# Patent publication US10765661B2, “Method for improving feed digestibility and growth performance” (DSM IP ASSETS B.V., priority 2015, dated 2020)
# Read-outs that look alike come from different tables or passages of the source. Marks after values point to notes of the source that are not given here.
# Key:
# [1] = tested on: Male broiler (Ross 308) chicks; type: in vivo; settings: main effect mean (factor: Yes)
# Text: The proteolytic enzyme (Ronozyme®ProAct) and Vitamin C (Staye®50) were provided in powder form and a ready to use formulation by DSM Nutritional Products.
# Male broiler (Ross 308) chicks were obtained from a local hatchery as day-olds and reared in cage in an environmentally controlled room. On d 0, chicks were individually weighed and 640 birds were allocated on weight basis to 80 cages (8 chicks per cage). The 8 dietary treatments (Table 1) were then randomly assigned to 10 replicate cages each. Experimental diets were fed from 0-21 and 22-35 days.
# During week 1, a broiler coccidiosis vaccine (Immucox, Pacificvet, Christchurch, New Zealand) was given via drinking water to all chicks.
# The birds received 20-hours of fluorescent illumination and allowed free access to the diets and water. Birds were checked at least three times daily (9.00 am, […]) and any unusual aspect of bird behaviour or condition was recorded. Sick or injured animals were weighed and removed from the study.
# The experimental design is a 2×2×2 factorial arrangement of treatments, with two basal control diets (positive control and negative control), two levels of enzyme (with and without) and two levels of vitamin C (with and without).
# The two control diets, positive and negative, based on wheat and soybean meal, were mixed for each phase of the study (0-21 and 22-35 d) (Table 2). The PC and NC diets were then used to develop 8 dietary treatments by adding the ProAct enzyme and Vitamin C mixtures. All the diets were fed in pellet form.
# Growth performance: Feed and water were available ad libitum during the 35 days experimental period. Body weights and feed intake were recorded on days 7, 14, 21, 28 and 35. Mortality was recorded daily. Feed per gain values were corrected for the body weight of any bird that died or culled during the course of the experiment.
# The data were subjected to ANOVA using the General Linear Models procedure of SAS (2004). Significant differences were considered at P<0.05. When a significant F-test was detected, means were separated using the least significant difference test.
# Ross 308 male broilers = experiment: Growth performance of broiler chickens fed two proteolytic enzymes supplemented with vitamin C (Example 3); type: in vivo; settings: for FCR / FI / WG: NC diet, Vit. C level 300 mg/kg, alone or with the named enzyme (CIBENZA 350 mg/kg, ProAct 200 mg/kg feed)
# Experimental: A total of 490 day old Ross 308 male broilers were randomly assigned to 7 treatments (6 experimental groups plus one control group) with 10 replicates of 7 birds per replicate. Six experimental groups with two levels of vitamin C (0 and 300 mg/kg feed) and three enzyme treatments: • no feed enzymes, • Novus CIBENZA (Bacillus licheniformis PWD-1 at levels of 350 mg/kg feed), • DSM RONOZYME® ProAct (at levels of 200 mg/kg feed), in a 2×3 factorial design plus one positive control. The diets of the positive control (PC) were based on wheat and soybean meal and were adequate in all nutrients. The other 6 experimental groups were fed with a negative control (NC) diet based also on wheat and soybean meal but containing less protein (97.5%) and digestible amino acids (95.5%) than the PC. The birds were fed starter (1-14 d) diets during the trial.
# The birds were fed the starter (1-14 d) diets ad libitum and had free access to water throughout the trial. RONOZYME® NP (CT) and RONOZYME® WX at levels of 200 and 100 mg/kg feed respectively were included in each diet. […] After mixing, the feed was pelleted at 75-80° C.
# All birds were reared in cages in an environmentally controlled room and received 23L:1D of lighting regime during the first week and 20L:4D afterward until the end of the trial. The temperature of the room was maintained at 32±1° C. on the day of arrival and adapted according to the age specific requirements of the chickens.
# At d 4, a broiler coccidiosis vaccine (Coccivac B®, MSD, Canada) was given as a mild challenge to all birds via oral administration. Body weights and feed intake were recorded at weekly intervals. Mortality was recorded daily. The weight of the dead animals was used to adjust the feed conversion ratio (FCR) which were calculated by dividing total feed intake by weight gain of live plus weight of dead birds per cage, respectively.
# [2] = 1-7 d, main effect mean of the 2x3 factorial (NC diet)
# [3] = 1-14 d, main effect mean of the 2x3 factorial (NC diet)
smiles,measurement,setting,value
"O=C1O[C@H]([C@@H](O)CO)C(O)=C1O [Vitamin C, L-ascorbic acid]","Feed intake, main effect",[1]; 1-21 d post-hatching,1437 g/bird
same,"Feed/gain, main effect",[1]; 1-21 d post-hatching,1.43 g/g
same,"Weight gain, main effect",[1]; 1-21 d post-hatching,1006 g/bird
same,"Feed intake, main effect",[1]; 1-35 d post-hatching,3809 g/bird
same,"Feed/gain, main effect",[1]; 1-35 d post-hatching,1.64 g/g
same,"Weight gain, main effect",[1]; 1-35 d post-hatching,2349 g/bird
same,FCR,Ross 308 male broilers; 1-7 d,1.141
same,FI,Ross 308 male broilers; 1-7 d,157 g/bird
same,WG,Ross 308 male broilers; 1-7 d,137 g/bird
same,"FCR, main effect",Ross 308 male broilers; [2],1.156
same,"FI, main effect",Ross 308 male broilers; [2],161 g/bird
same,"WG, main effect",Ross 308 male broilers; [2],140 g/bird
same,"FCR, main effect","Ross 308 male broilers; 1-7 d, main effect mean of the 2x3 factorial (NC diet), listed as Vit. C",1.156^A
same,FCR,Ross 308 male broilers; 1-14 d,1.354^a
same,FI,Ross 308 male broilers; 1-14 d,602 g/bird
same,WG,Ross 308 male broilers; 1-14 d,445 g/bird
same,"FCR, main effect",Ross 308 male broilers; [3],1.440
same,"FI, main effect",Ross 308 male broilers; [3],635 g/bird
same,"WG, main effect",Ross 308 male broilers; [3],443 g/bird
same,"FCR, main effect","Ross 308 male broilers; 1-14 d, main effect mean of the 2x3 factorial (NC diet), listed as Vit. C",1.440^A
same,"FCR, main effect","Ross 308 male broilers; d 1 to d 21, birds fed vitamin C vs. 1.516 without, P=0.080",1.478
